According to publication PMC10859961, “Ir(III) Half-Sandwich Photosensitizers with a π-Expansive Ligand for Efficient Anticancer Photodynamic Therapy” (Journal of Medicinal Chemistry, 2024):
Like-named read-outs stand apart in the source and are kept apart here.

Experiments:
[1] = 1O2 quantum yield determination with DPBF; conditions: acetonitrile; for 1O2 generation quantum yield (ϕΔ), DPBF: 470 nm blue light
Procedure: It was performed for complexes 1–8 in acetonitrile according to a relative procedure adapted from the literature[132]−[134] based on monitoring the oxidation of 1,3-diphenylisobenzofuran (DPBF, yellow) to 1,2-dibenzoylbenzene (colorless) photosensitized by the Ir(III) complexes. DPBF was used as an ^1O2 scavenger due to its fast reaction with this molecule. Fresh stock air-equilibrated solutions of photosensitizers (6.00 × 10^–6 M) and DPBF (1.50 × 10^–4 M) in acetonitrile were prepared. In a quartz cell, 1 mL of DPBF solution, 0.5 mL of complex solution, and 1.5 mL of acetonitrile were mixed to prepare a final solution with 5.00 × 10^–5 M DPBF and 1.00 × 10^–6 M complex. The final solutions were studied by recording UV–vis absorption spectra at room temperature in dark conditions (over a period of 6 min with time intervals of 2 min), under blue light irradiation (λexc = 470 nm, “Medusa” photoreactor) and under green light irradiation (λexc = 530 nm, “Medusa” photoreactor) for 5 s irradiation intervals during a total exposure period of 20 s. Absorption UV–vis spectra were recorded after every irradiation interval.
The consumption of DPBF probe was measured by monitoring its absorbance intensity decrease at 410 nm with irradiation time. ^1O2 generation quantum yield (ϕΔ) was calculated from eq 1 using Rose Bengal or [Ru(bpy)3]^2+ as reference for complexes with pbpz and pbpn ligands, respectively: [drawing 22] 1 where s and ref subscripts correspond to the complex and the reference, ϕΔ is the ^1O2 generation quantum yield (0.53 for Rose Bengal[135] and 0.56 for [Ru(bpy)3]Cl2[132] in degassed acetonitrile), S is the slope of the plots of the −ln(normalized absorbance) of DPBF at 410 nm vs the irradiation time, and F is the correction factor of absorption, which is given by F = 1–10^–O.D. (where O.D. is the optical density at 470 nm of solutions of complexes and references). The reproducibility of the results was confirmed by performing each experiment three times.
The stability of DPBF probe was studied in dark conditions and under light irradiation. In dark conditions and under green light irradiation the probe remains unaltered. However, under blue light irradiation, a photobleaching of DPBF was observed. Probe consumption was approximately 6.5% every 5 s. Therefore, a working interval of 20 s was chosen, where 75% of the probe remains stable. To calculate the ϕΔ, a correction factor was applied to the absorbance at 410 nm: a 6.5% of the previous value was added to each absorbance to counteract self-consumption of the probe (i.e., to the absorbance at 10 s, a 6.5% of the absorbance at 5 s was added).

A549 cancer cells = assay: MTT cell viability assay, dark or photoactivated; format: cell-based, human; conditions: A549; for IC50: 4 h incubation; for IC50 / PI green light (IC50,dark/IC50,light) / PI red light (IC50,dark/IC50,light) / PI blue light (IC50,dark/IC50,light): MTT; for PI green light (IC50,dark/IC50,light): green light 530 nm; for PI green light (IC50,dark/IC50,light) / PI red light (IC50,dark/IC50,light) / PI blue light (IC50,dark/IC50,light): 24.1 J cm^–2; for PI/Dose: dose 24.1 J cm‐2, PI from MTT; for PI red light (IC50,dark/IC50,light): red light 655 nm; for PI blue light (IC50,dark/IC50,light): blue light 460 nm
Procedure: Cells were cultured in 96-well plates at a density of 3000 (A549), 2500 (HeLa), or 5000 (PC-3, 1BR.3.G, and MRC-5) cells per well in cell culture medium and allowed to attach for 24 h. Solutions of the complexes at different concentrations were prepared for cell treatments. In all cases, the solid compounds were weighed using an analytical balance (Mettler Toledo AX205DR) to ensure precise measurements. Subsequently, 5 mM solutions were prepared using DMSO. Solutions were then diluted in water to reach a concentration of 1 mM and then, aliquots were taken and diluted in culture medium to obtain solutions ranging from 0 to 50 μM. […] The cells were treated with these solutions in dark conditions or following the photoactivation protocol (see below). 48 h later the treatments were removed, and cells were washed with phosphate-buffered saline (PBS).
Initially, the effect of the complexes on the cell viability was determined by the 3-(4,5-dimethylthiazol-2-yl)-2,5-diphenyltetrazolium bromide (MTT) assay.[147] The cells were incubated for 2 h with 100 μL of culture medium together with 10 μL of MTT (Sigma-Aldrich) at 0.5 mg/mL. After discarding the medium, DMSO was added to each well to dissolve the purple formazan crystals. The absorbance of each well was determined on a Multiscan Plate Reader (Synergy 4, Biotek, Winooski) at a wavelength of 570 nm. Cell viability was also assessed using the CyQUANT Direct Cell Proliferation Assay (Thermo Fisher Scientific), following the manufacturer’s instructions. Briefly, after the treatments, the cells were washed with PBS, and an equal volume of culture medium and CyQUANT mix was added to each well. The plates were then incubated for 1 h at 37 °C. Subsequently, the fluorescence intensity was bottom read using a Multiscan Plate Reader (Synergy 4, Biotek, Winooski) with excitation and emission filters of 485 and 528 nm, respectively. In both assays, at least three replicates were measured for each treatment. The concentration that reduces the cell viability by 50% (IC50) was established using the Gen5 software (BioTek). Three independent experiments were carried out for each compound. […] The phototoxicity index (PI = IC50,dark/IC50,light) was determined.
To assess the photodynamic activity of the complexes, cells were incubated with the complexes for 4 h to enable their intracellular accumulation. The cells were then irradiated with light with a wavelength of 460 nm (blue), 530 nm (green), or 655 nm (red) for 1 h using a LED system (LuxLight) with an effective power of 6.7 mW cm^–2, which provides a total light dose of 24.1 J cm^–2. The LED system was positioned at 25 mm from the cell culture plates.

[2] = Photocatalytic NADH oxidation (UV-vis); format: biochemical; set-up: key: TON = ΔNADH concentration after 1 h / photocatalyst concentration; conditions: first hour, complex 2.5 μM, NADH 100 μM
Procedure: Fresh stock solutions of the complexes at 7.50 μM in H2O/MeOH mixture (97.5/2.5, v/v) and NADH at 300 μM in H2O/MeOH mixture (97.5/2.5, v/v) were prepared. In a quartz cell, 1 mL of complex solution, 1 mL of NADH solution, and 1 mL of solvent mixture were mixed to prepare a final solution with 2.50 μM complex and 100 μM NADH (complex/NADH rate = 1/40). The solutions were studied by recording UV–vis absorption spectra in dark conditions and under blue light irradiation (λexc = 470 nm, “Medusa” photoreactor) at ambient temperature and various time intervals for 8 h. In addition, a solution of NADH at 100 μM was studied under blue light irradiation to confirm its photostability. The photocatalytic rate of the photosensitizers was evaluated by monitoring its absorbance decrease at 340 nm, which correspond to NADH oxidation.
The turnover numbers (TONs) of complexes were calculated by measuring the absorption difference at 340 nm after 1 h of reaction. TON was calculated from the difference in NADH concentration after 1 h divided by the concentration of photocatalyst (eq 5), where b is the optical path length (1 cm). The concentration of NADH was obtained using the extinction coefficient ε340 = 5751 M^–1 cm^–1.[40],[148] [drawing 26] 5

[3] = blue light 460 nm 1 h (24.1 J cm^–2), 48 h, read-out: IC50 blue light
[4] = green light 530 nm 1 h (24.1 J cm^–2), 48 h, read-out: IC50 green light
[5] = kept in the dark, viability after 48 h, read-out: IC50 dark
[6] = red light 655 nm 1 h (24.1 J cm^–2), 48 h, read-out: IC50 red light

With `Cc1c(C)c(C)[c-](C)c1C.[Cl][Ir]1[c]2cccc3c4nc5ccccc5nc4c4ccc[n+]1c4c23` [complex 1, [(η^5-C5Me5)IrCl(pbpz)]] the “1O2 generation quantum yield (ϕΔ), DPBF” value [1] was 0.0780, the IC50 (A549 cancer cells; [3]) was 2.9 ± 0.4 µM and the IC50 (A549 cancer cells; [4]) was 5.8 ± 0.1 µM. The IC50 (A549 cancer cells; [5]) was 8 ± 1 µM, the “PI green light (IC50,dark/IC50,light)” value (A549 cancer cells) was 1.4 and the “TON1h (NADH oxidation)” value ([2]; 470 nm blue light) was 12.47. For the same compound, the “TON1h (NADH oxidation)” value ([2]; dark) was 0.16.

In the case of `Cc1c(C)c(C)[c-](C)c1C.F[B-](F)(F)F.c1ccc2cc3nc4c5ccc[n+]6c5c5[c](cccc5c4nc3cc2c1)[Ir]6[n+]1cc[nH]c1` [complex 4, [(η^5-C5Me5)Ir(Im)(pbpn)]BF4], the “1O2 generation quantum yield (ϕΔ), DPBF” value [1] is reported as 0.9894, the “Slope (S) of ‐ln(normalized Abs) vs time, photooxidation of DPBF” value (“Slope (S) of ‐ln(normalized Abs) vs time” for short) ([1]; λir = 470 nm) is reported as 0.0890 and the “Slope (S) of ‐ln(normalized Abs) vs time” value ([1]; λir = 530 nm) is reported as 0.0058. The PI/Dose (A549 cancer cells; 530 nm) was 12.2, the IC50 (A549 cancer cells; [3]) was 0.0032 ± 0.002 µM and the IC50 (A549 cancer cells; [4]) was 0.01 ± 0.003 µM. For the same compound, the IC50 (A549 cancer cells; [5]) was 2.9 ± 1 µM, the IC50 (A549 cancer cells; [6]) was 0.12 ± 0.05 µM and the “PI green light (IC50,dark/IC50,light)” value (A549 cancer cells) was 294. For the same compound, the “PI red light (IC50,dark/IC50,light)” value (A549 cancer cells) was 25, the “TON1h (NADH oxidation)” value ([2]; 470 nm blue light) was 9.71 and the “TON1h (NADH oxidation)” value ([2]; dark) was 0.31.

For `Cc1c(C)c(C)[c-](C)c1C.F[B-](F)(F)F.c1ccc2nc3c4ccc[n+]5c4c4[c](cccc4c3nc2c1)[Ir]5[n+]1ccn(CCN2CCCCC2)c1` [complex 5, [(η^5-C5Me5)Ir(Imepip)(pbpz)]BF4], the “1O2 generation quantum yield (ϕΔ), DPBF” value [1] was 0.026, the IC50 (A549 cancer cells; [3]) was 0.39 ± 0.1 µM and the IC50 (A549 cancer cells; [4]) was 0.52 ± 0.02 µM. The IC50 (A549 cancer cells; [5]) was 0.83 ± 0.02 µM, the “PI blue light (IC50,dark/IC50,light)” value (A549 cancer cells) was 2.1 and the “PI green light (IC50,dark/IC50,light)” value (A549 cancer cells) was 1.6. The “TON1h (NADH oxidation)” value ([2]; 470 nm blue light) was 2.36 and the “TON1h (NADH oxidation)” value ([2]; dark) was 0.37.

With `Cc1c(C)c(C)[c-](C)c1C.F[B-](F)(F)F.c1ccc2cc3nc4c5ccc[n+]6c5c5[c](cccc5c4nc3cc2c1)[Ir]6[n+]1ccn(CCN2CCCCC2)c1` [complex 6, [(η^5-C5Me5) Ir(Imepip)(pbpn)]BF4] the “1O2 generation quantum yield (ϕΔ), DPBF” value [1] was 0.8118, the “Slope (S) of ‐ln(normalized Abs) vs time” value ([1]; λir = 470 nm) was 0.0657 and the “Slope (S) of ‐ln(normalized Abs) vs time” value ([1]; λir = 530 nm) was 0.0069. For the same compound, the PI/Dose (A549 cancer cells; 460 nm) was 54.6, the PI/Dose (A549 cancer cells; 655 nm) was 2.6 and the IC50 (A549 cancer cells; [3]) was 0.0015 ± 0.0005 µM. For the same compound, the IC50 (A549 cancer cells; [4]) was 0.011 ± 0.004 µM, the IC50 (A549 cancer cells; [5]) was 2 ± 0.1 µM and the IC50 (A549 cancer cells; [6]) was 0.032 ± 0.01 µM. The “PI green light (IC50,dark/IC50,light)” value (A549 cancer cells) was 179, the “PI red light (IC50,dark/IC50,light)” value (A549 cancer cells) was 63 and the “TON1h (NADH oxidation)” value ([2]; 470 nm blue light) was 7.79. The “TON1h (NADH oxidation)” value ([2]; dark) was 0.94.

With `Cc1c(C)c(C)[c-](C)c1C.F[B-](F)(F)F.c1ccc(Cn2cc[n+]([Ir]3[c]4cccc5c6nc7ccccc7nc6c6ccc[n+]3c6c45)c2)cc1` [complex 7, [(η^5-C5Me5)Ir(bzIm)(pbpz)]BF4] the “1O2 generation quantum yield (ϕΔ), DPBF” value [1] was 0.0204, the IC50 (A549 cancer cells; [3]) was 0.65 ± 0.2 µM and the IC50 (A549 cancer cells; [4]) was 0.47 ± 0.04 µM. The IC50 (A549 cancer cells; [5]) was 0.77 ± 0.2 µM, the “PI blue light (IC50,dark/IC50,light)” value (A549 cancer cells) was 1.2 and the “PI green light (IC50,dark/IC50,light)” value (A549 cancer cells) was 1.7. For the same compound, the “TON1h (NADH oxidation)” value ([2]; 470 nm blue light) was 4.54 and the “TON1h (NADH oxidation)” value ([2]; dark) was 0.12.

For `Cc1c(C)c(C)[c-](C)c1C.F[B-](F)(F)F.c1ccc(Cn2cc[n+]([Ir]3[c]4cccc5c6nc7cc8ccccc8cc7nc6c6ccc[n+]3c6c45)c2)cc1` [complex 8, [(η^5-C5Me5)Ir(bzIm)(pbpn)]BF4], the “1O2 generation quantum yield (ϕΔ), DPBF” value [1] was 0.99, the “Slope (S) of ‐ln(normalized Abs) vs time” value ([1]; λir = 470 nm) was 0.0771 and the “Slope (S) of ‐ln(normalized Abs) vs time” value ([1]; λir = 530 nm) was 0.0061. The IC50 (A549 cancer cells; [3]) was 0.0002 ± 0.0001 µM, the IC50 (A549 cancer cells; [4]) was 0.0021 ± 0.0004 µM and the IC50 (A549 cancer cells; [5]) was 0.15 ± 0.05 µM. The IC50 (A549 cancer cells; [6]) was 0.03 ± 0.02 µM, the “PI green light (IC50,dark/IC50,light)” value (A549 cancer cells) was 71 and the “PI red light (IC50,dark/IC50,light)” value (A549 cancer cells) was 5. For the same compound, the “TON1h (NADH oxidation)” value ([2]; 470 nm blue light) was 5.75 and the “TON1h (NADH oxidation)” value ([2]; dark) was 0.14.
